Entries after “also recorded” stand apart in the source; their conditions may differ.
Tests used:
human KOR [1] = target: T1, human KOR (Homo sapiens, UniProt P41145); type: binding
human DOR [2] = target: T2, human DOR (Homo sapiens, UniProt P41143); type: binding
male C57BL/6 mice = conditions: mouse, in vivo
human KOR [3] = target: T1, human KOR; type: biochemical
in vitro = conditions: mouse, microsomes, pH 7.4, metabolic half-life in MLM, abstract statement
human DOR [4] = target: T2, human DOR; type: biochemical
human MOR = human MOR (Homo sapiens, UniProt P35372); assay: biochemical; type: biochemical; conditions: for Emax at 10 µM: read-out: Efficacy (% Stimulation) MOR
Sequence of human MOR (P35372 whole entry): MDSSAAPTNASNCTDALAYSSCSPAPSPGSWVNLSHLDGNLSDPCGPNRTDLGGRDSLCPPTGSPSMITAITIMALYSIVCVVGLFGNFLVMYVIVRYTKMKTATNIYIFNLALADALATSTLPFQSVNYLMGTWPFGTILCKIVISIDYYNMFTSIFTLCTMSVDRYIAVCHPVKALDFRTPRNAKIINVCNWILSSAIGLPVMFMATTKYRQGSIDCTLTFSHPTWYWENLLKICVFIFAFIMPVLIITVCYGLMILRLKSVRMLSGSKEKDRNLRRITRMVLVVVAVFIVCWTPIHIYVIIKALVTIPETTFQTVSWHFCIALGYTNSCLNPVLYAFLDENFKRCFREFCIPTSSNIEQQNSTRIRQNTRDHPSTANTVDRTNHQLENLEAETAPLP

T2 sequence (P41143 whole entry): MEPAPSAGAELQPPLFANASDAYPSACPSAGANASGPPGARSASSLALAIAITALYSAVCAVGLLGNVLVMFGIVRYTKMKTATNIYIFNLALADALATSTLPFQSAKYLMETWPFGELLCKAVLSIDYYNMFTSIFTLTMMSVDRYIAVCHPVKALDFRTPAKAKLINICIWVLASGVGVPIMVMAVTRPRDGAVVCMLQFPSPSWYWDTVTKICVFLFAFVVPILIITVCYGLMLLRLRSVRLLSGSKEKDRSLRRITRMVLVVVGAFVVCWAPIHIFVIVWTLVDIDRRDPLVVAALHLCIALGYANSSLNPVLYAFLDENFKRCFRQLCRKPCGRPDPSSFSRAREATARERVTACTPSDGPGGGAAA
T1 sequence (P41145 whole entry): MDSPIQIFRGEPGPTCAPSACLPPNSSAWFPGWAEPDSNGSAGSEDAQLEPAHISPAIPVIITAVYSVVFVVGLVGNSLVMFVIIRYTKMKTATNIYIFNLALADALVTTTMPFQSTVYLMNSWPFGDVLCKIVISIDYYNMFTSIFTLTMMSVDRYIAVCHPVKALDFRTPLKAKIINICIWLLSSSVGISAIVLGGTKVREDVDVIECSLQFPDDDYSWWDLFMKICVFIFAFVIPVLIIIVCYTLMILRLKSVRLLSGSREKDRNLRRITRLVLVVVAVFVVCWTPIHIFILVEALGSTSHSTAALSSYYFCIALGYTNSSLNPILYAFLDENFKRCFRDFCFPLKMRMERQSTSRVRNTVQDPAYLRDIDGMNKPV

Row | SMILES | Selectivity MOR:DOR:KOR, KOR term (Ki KOR / Ki MOR) (human KOR [1]) | Selectivity MOR:DOR:KOR, DOR term (Ki DOR / Ki MOR) (human DOR [2]) | antinociceptive activity in AASA (overall) (male C57BL/6 mice) | Efficacy (% Stimulation) KOR (human KOR [3]) | Potency, EC50 KOR (human KOR [3]) | half-life at 1 μM (in vitro) | antinociceptive activity in AASA at 1 mg/kg (male C57BL/6 mice) | Efficacy (% Stimulation) DOR (human DOR [4]) | Potency, EC50 DOR (human DOR [4]) | partial DOR agonist, potency in words (human DOR [4]) | MOR agonist character in words (human MOR) | Emax at 10 µM (human MOR) | KOR binding affinity in words (human KOR [1]) | Efficacy (% Stimulation) MOR (human MOR) | Potency, EC50 MOR (human MOR)
1 | CCOc1ccc(CN2CCCC2)cc1CNC(=O)[C@@H](N)Cc1c(C)cc(O)cc1C.O=C(O)C(F)(F)F [Compound 13, (S)-1-((2-ethoxy-5-(pyrrolidin-1-ylmethyl)benzyl)amino)-3-(4-hydroxy-2,6-dimethylphenyl)-1-oxopropan-2-aminium trifluoroacetate] | 1:3.0:29 | 1:3.0:29 | inactive; also recorded: lacked antinociceptive activity |  |  |  |  |  |  |  |  |  |  |  | 
2 | CCOc1ccc(CN2CCCCC2)cc1CNC(=O)[C@@H](N)Cc1c(C)cc(O)cc1C.O=C(O)C(F)(F)F [Compound 14, (S)-1-((2-ethoxy-5-(piperidin-1-ylmethyl)benzyl)amino)-3-(4-hydroxy-2,6-dimethylphenyl)-1-oxopropan-2-aminium trifluoroacetate] | 1:3.1:20 | 1:3.1:20 |  | DNS | DNS | > 1 h | active antinociceptive agents |  |  |  |  |  |  |  | 
3 | CCOc1ccc(CN2CC3CC3C2)cc1CNC(=O)[C@@H](N)Cc1c(C)cc(O)cc1C.O=C(O)C(F)(F)F (stereo partly drawn) [Compound 15, (2S)-1-((5-((3-azabicyclo[3.1.0]hexan-3-yl)methyl)-2-ethoxybenzyl)amino)-3-(4-hydroxy-2,6-dimethylphenyl)-1-oxopropan-2-aminium trifluoroacetate] | 1:2.6:13 | 1:2.6:13 |  |  |  |  |  |  |  |  |  |  |  |  | 
4 | CCOc1ccc(CN2CCOCC2)cc1CNC(=O)[C@@H](N)Cc1c(C)cc(O)cc1C.O=C(O)C(F)(F)F [Compound 16, (S)-1-((2-ethoxy-5-(morpholinomethyl)benzyl)amino)-3-(4-hydroxy-2,6-dimethylphenyl)-1-oxopropan-2-aminium trifluoroacetate] | 1:2.0:>49 | 1:2.0:>49 |  | DNS | DNS |  |  | did not stimulate DOR and DNS | DNS |  |  |  |  |  | 
5 | CCOc1ccc(CN2Cc3ccccc3C2)cc1CNC(=O)[C@@H](N)Cc1c(C)cc(O)cc1C.O=C(O)C(F)(F)F [Compound 17, (S)-1-((2-ethoxy-5-(isoindolin-2-ylmethyl)benzyl)amino)-3-(4-hydroxy-2,6-dimethylphenyl)-1-oxopropan-2-aminium trifluoroacetate] |  |  |  | DNS | DNS |  | active antinociceptive agents | 35.7±2.8% |  | moderate | full agonists | 98.1 ± 6.7% |  |  | 
6 | CCOc1ccc(CN2CCc3ccccc3C2)cc1CNC(=O)[C@@H](N)Cc1c(C)cc(O)cc1C.O=C(O)C(F)(F)F [Compound 18, (S)-1-((5-((3,4-dihydroisoquinolin-2(1H)-yl)methyl)-2-ethoxybenzyl)amino)-3-(4-hydroxy-2,6-dimethylphenyl)-1-oxopropan-2-aminium trifluoroacetate] |  | 1:10:192 |  | DNS | DNS |  |  | did not stimulate DOR and DNS | DNS |  | full agonists | 94.6 ± 3.9% |  |  | 
7 | CCOc1ccc(CNCc2ccccc2)cc1CNC(=O)[C@@H](N)Cc1c(C)cc(O)cc1C.O=C(O)C(F)(F)F [Compound 19, (S)-1-((5-((benzylamino)methyl)-2-ethoxybenzyl)amino)-3-(4-hydroxy-2,6-dimethylphenyl)-1-oxopropan-2-aminium trifluoroacetate] |  |  |  | >20% |  |  |  | 26.1±1.7% |  | high |  | 77.9 ± 3% | low double-digit |  | 
8 | CCOc1ccc(CN(C)Cc2ccccc2)cc1CNC(=O)[C@@H](N)Cc1c(C)cc(O)cc1C.O=C(O)C(F)(F)F [Compound 20, (S)-1-((5-((benzyl(methyl)amino)methyl)-2-ethoxybenzyl)amino)-3-(4-hydroxy-2,6-dimethylphenyl)-1-oxopropan-2-aminium trifluoroacetate] | 1:4.0:26 | 1:4.0:26 | inactive; also recorded: lacked antinociceptive activity | DNS | DNS |  |  | did not stimulate DOR and DNS | DNS |  |  | 72.2 ± 6.2% | low double-digit |  | 
9 | CCOc1ccc(C(=O)N2CCCC2)cc1CNC(=O)[C@@H](N)Cc1c(C)cc(O)cc1C.O=C(O)C(F)(F)F [Compound 21, (S)-1-((2-ethoxy-5-(pyrrolidine-1-carbonyl)benzyl)amino)-3-(4-hydroxy-2,6-dimethylphenyl)-1-oxopropan-2-aminium trifluoroacetate] | 1:2.2:>22 | 1:2.2:>22 |  | DNS | DNS |  |  | did not stimulate DOR and DNS | DNS |  |  |  |  | DNS | DNS
10 | CCOc1ccc(C(=O)N2Cc3ccccc3C2)cc1CNC(=O)[C@@H](N)Cc1c(C)cc(O)cc1C.O=C(O)C(F)(F)F [Compound 22, (S)-1-((2-ethoxy-5-(isoindoline-2-carbonyl)benzyl)amino)-3-(4-hydroxy-2,6-dimethylphenyl)-1-oxopropan-2-aminium trifluoroacetate] |  | 1:20:900 |  | DNS | DNS |  |  | did not stimulate DOR and DNS | DNS |  |  | 27.8 ± 0.7% |  |  | 

From PMC7047604 (Journal of medicinal chemistry, 2020)
